In patent US20240041830A1, “CIRCULATING BIOMARKERS OF RESPONSE TO PD-1/PD-L1 BLOCKADE AND GSK-3 INHIBITION” (Brown University, priority 2022, published 2024):

How the values were obtained:
HT-29 = experiment: Western blot analysis; type: cell-based, human; conditions: 100 ng/mL and 250 ng/mL IFN-γ
Procedure: (§1) Pyroptosis assay. Recombinant Human TNF-α (Cat #300-01A, PeproTech, Rocky Hill, NJ, USA) and Recombinant Human IFN-γ (Cat #300-02, PeproTech, Rocky Hill, NJ, USA) were purchased for use in western blot analysis while rhTRAIL was generated in-house. See Kim et al., J. Biol. Chem., 279, 40044-40052 (2004).
(§2) Western blot analysis. Cells were plated in a 6-well plate and incubated overnight before the spent media was replaced with drugged media. Drug treatment lasted for indicated durations. Protein was extracted using radioimmunoprecipitation (RIPA) assay buffer (Cat #R0278, Sigma-Aldrich, St. Louis, MO, USA) containing cOmplete™, Mini, EDTA-free Protease Inhibitor Cocktail (Cat #4693159001, Roche, Basel, Switzerland) from sub-confluent cells. Denaturing sample buffer was added, samples were boiled at 95° C. for ten minutes, and an equal amount of protein lysate was electrophoresed through NuPAGE™ 4 to 12%, bis-Tris, 1.5 mm, Mini Protein Gels (Invitrogen, Waltham, MA, USA) then transferred to PVDF membranes. The PVDF membrane was blocked with 5% non-fat milk (Sigma-Aldrich, St. Louis, MO, USA) in 1× TTBS. Primary antibodies were incubated with the transferred PVDF membrane in blocking buffer at 4° C. overnight. Secondary antibodies included Goat anti-Rabbit IgG (H+L) Secondary Antibody, HRP (Cat #31460, Invitrogen, Waltham, MA, USA), and Goat anti-Mouse IgG (H+L) Secondary Antibody, HRP (Cat #31430, Invitrogen, Waltham, MA, USA). The signal was detected using Pierce™ ECL Western Blotting Substrate (Cat #32106, Thermo Scientific, Waltham, MA, USA) and a Syngene Imaging System (RRID: SCR_015770).
(§3) Elraglusib uprequlates tumor cell PD-L1 and proapoptotic pathway expression as well as downregulates immunosuppressive/angiogenic protein expression and pro-survival pathways. The inventors performed Western blot analyses on colorectal cancer cells (HCT-116, HT-29) treated with elraglusib over a 72-hour time course. […] The inventors observed increases in PD-L1 expression as the treatment duration increased. To further elucidate the elraglusib-mediated effects on tumor cell survival, the inventors probed for survival factors Bcl-2 and Survivin and noted decreases in protein expression in both cell lines, especially at the later timepoints (forty-eight hours, seventy-two hours). […] HCT116 cells are heterozygous for β-catenin, harboring one wild-type allele and one mutant allele with inactivation of one of the residues phosphorylated by GSK-3β that is frequently mutated in tumors. Kaler, Augenlicht, & Klampfer, PLoS ONE, 7, e45462 (2012). HT-29, KM12C, and SW480 cells harbor APC mutations. Rowan et al., Proc. Natl. Acad. Sci. USA, 97, 3352 (2000).

HCT-116 = experiment: Western blot analysis; type: cell-based, human; conditions: 100 ng/mL and 250 ng/mL IFN-γ
Procedure: as §1, §2, §3

Substance: IFN-γ: Recombinant Human IFN-γ (PeproTech) used in western blot analysis
- gasdermin B expression (HT-29): increase
- gasdermin B expression (HCT-116): increase
